Measurements from ChEMBL document CHEMBL4411291, “Synthesis and anti-tumor activity of imidazopyrazines as TAK1 inhibitors” (Eur J Med Chem, 2019).
The source made the active and inactive calls. The rule behind the calls is not given here.

Tests used:
[1] = target: T1, Mitogen-activated protein kinase kinase kinase 7 (Homo sapiens) (UniProt O43318); assay: Inhibition of TAK1 (unknown origin) at 0.1 uM by LanthaScreen Eu kinase binding assay relative to control
T1 sequence (whole entry): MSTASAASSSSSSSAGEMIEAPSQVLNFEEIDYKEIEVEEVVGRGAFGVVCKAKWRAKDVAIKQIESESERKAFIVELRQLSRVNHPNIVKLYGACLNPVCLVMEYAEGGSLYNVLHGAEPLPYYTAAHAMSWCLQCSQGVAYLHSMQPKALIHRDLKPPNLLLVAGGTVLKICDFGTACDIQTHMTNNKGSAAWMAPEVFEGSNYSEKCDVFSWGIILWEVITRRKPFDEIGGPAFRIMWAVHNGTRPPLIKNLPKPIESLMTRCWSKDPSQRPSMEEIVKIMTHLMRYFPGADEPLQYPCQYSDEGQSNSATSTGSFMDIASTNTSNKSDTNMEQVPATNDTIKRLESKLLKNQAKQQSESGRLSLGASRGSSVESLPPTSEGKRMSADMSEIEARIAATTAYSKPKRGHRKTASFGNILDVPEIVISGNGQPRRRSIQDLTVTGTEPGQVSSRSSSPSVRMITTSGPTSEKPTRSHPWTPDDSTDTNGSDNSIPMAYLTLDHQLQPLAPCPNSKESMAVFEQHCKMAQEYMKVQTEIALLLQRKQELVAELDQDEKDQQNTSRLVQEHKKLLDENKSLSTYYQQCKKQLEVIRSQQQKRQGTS

[2] = target: T1, Mitogen-activated protein kinase kinase kinase 7 (Homo sapiens); assay: Inhibition of TAK1 (unknown origin) at 1 uM by LanthaScreen Eu kinase binding assay relative to control
[3] = test system: SW-620; assay: Antitumor activity against human SW620 cells xenografted in CAnN.Cg-Foxnlnu/Crljbgi nude mouse assessed as tumor growth inhibition at 30 mg/kg, po dosed daily for 14 consecutive days; format: functional, organism-based
[4] = test system: SK-CO-1; assay: Growth inhibition of human SKCO1 cells after 96 hrs by SRB assay; format: functional, cell-based; conditions: SK-CO-1, 96 h
[5] = test system: LoVo; assay: Growth inhibition of human LoVo cells after 96 hrs by SRB assay; format: functional, cell-based
[6] = Toxicity in CAnN.Cg-Foxnlnu/Crljbgi nude mouse xenografted with human SW620 cells assessed as weight loss at 30 mg/kg, po dosed daily for 14 consecutive days; format: organism-based; conditions: in vivo
[7] = test system: SW-620; assay: Growth inhibition of human SW620 cells after 96 hrs by SRB assay; format: functional, cell-based; conditions: SW-620, 96 h

| Compound | inhibition [1] | inhibition [2] | TGI [3] | IC50 [4] | IC50 [5] | Activity [6] | IC50 [7] |
| --- | --- | --- | --- | --- | --- | --- | --- |
| Cc1cc(NC(=O)Nc2cc(C(C)(C)C)nn2-c2ccc(C#N)cc2)ccc1-c1cnc(NC2CC2)c2nccn12 | 19% | 84% | – | – | – | – | – |
| Cc1cc(NC(=O)Nc2cc(C(C)(C)C)nn2-c2ccccc2)ccc1Oc1cnc(NC2CC2)c2nccn12 | 20% | 90% | – | – | – | – | – |
| Cc1ccc(-n2nc(C(C)(C)C)cc2NC(=O)Nc2ccc(-c3cnc(NC4CC4)c4nccn34)c(C)c2)cc1 | 7% | 91% | – | – | – | – | – |
| Cc1cc(NC(=O)Nc2cc(C(C)(C)C)nn2-c2cccc(C#N)c2)ccc1-c1cnc(NC2CC2)c2ncnn12 | 36% | 92% | – | – | – | – | – |
| Cc1cc(NC(=O)Nc2cc(C(C)(C)C)nn2-c2ccc(F)cc2)ccc1-c1cnc(NC2CC2)c2nccn12 | 0% | 69% | – | – | – | – | – |
| Cc1cc(NC(=O)Nc2cc(C(C)(C)C)nn2-c2ccccc2)ccc1-c1cnc(NC2CC2)c2ncnn12 | 24% | 80% | – | – | – | – | – |
| Cc1cc(NC(=O)Nc2cc(C(C)(C)C)nn2-c2cccc(F)c2)ccc1-c1cnc(NC2CC2)c2nccn12 | 34% | 94% | – | – | – | – | – |
| Cc1cc(NC(=O)Nc2cc(C(C)(C)C)nn2-c2ccccc2)ccc1Oc1cn2ccnc2c(NC2CC2)n1 | 0% | 30% | – | – | – | – | – |
| CCc1cc(Nc2ncc(F)c(-c3cnc4cccnn34)n2)cc(OCCN2CCC(O)CC2)c1 | 96% | 98% | Active | 61 nM | 75 nM | Toxic | 38 nM |
